Experimental data reported in paper PMC11594608, “Sulfonamide-Based Inhibition of the β-Carbonic Anhydrase from A. baumannii, a Multidrug-Resistant Bacterium” (International Journal of Molecular Sciences, 2024).
Read-outs that look alike come from different tables or passages of the source.

Key:
βAbauCA (CanB) = molecular target: T1, βAbauCA (CanB) (Acinetobacter baumannii, UniProt A0A7U3Y636); assay: stopped-flow CO2 hydrase assay; type: biochemical; conditions: CO2 substrate, […] TRIS pH […] NaClO4, […] °C, […] min preincubation
T1 construct: gene AB57_1063; oligomer not determined here
T1 sequence (A0A7U3Y636 1-204): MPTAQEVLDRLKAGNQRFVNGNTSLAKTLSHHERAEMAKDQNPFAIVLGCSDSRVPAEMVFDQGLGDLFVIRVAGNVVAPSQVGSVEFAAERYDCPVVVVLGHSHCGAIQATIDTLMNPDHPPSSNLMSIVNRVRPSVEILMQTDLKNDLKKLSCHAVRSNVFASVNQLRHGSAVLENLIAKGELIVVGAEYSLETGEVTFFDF

hCA I = molecular target: T2, hCA I (Homo sapiens, UniProt P00915); assay: stopped-flow CO2 hydrase assay; type: biochemical; conditions: read-out: KI (nM) ^a / CA I
T2 construct: gene CA1
T2 sequence (P00915 2-261): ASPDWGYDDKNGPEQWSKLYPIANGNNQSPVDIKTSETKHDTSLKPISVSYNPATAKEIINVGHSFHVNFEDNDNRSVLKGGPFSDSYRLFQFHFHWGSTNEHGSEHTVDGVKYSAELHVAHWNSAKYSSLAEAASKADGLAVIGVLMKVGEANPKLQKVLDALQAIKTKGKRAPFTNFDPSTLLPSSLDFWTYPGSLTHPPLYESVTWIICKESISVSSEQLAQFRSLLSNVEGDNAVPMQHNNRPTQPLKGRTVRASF

CCN1CCCC1CNC(=O)c1cc(S(N)(=O)=O)ccc1OC (stereo not shown) [SLP]
Ki (βAbauCA (CanB)): 6860 nM

NS(=O)(=O)c1ccc(CCO)cc1 [compound 17, 17]
Ki (βAbauCA (CanB)): 715 nM

Nc1ccc(S(=O)(=O)NCCc2ccc(S(N)(=O)=O)cc2)cc1 [compound 24, 24]
Ki (βAbauCA (CanB)): 326 nM

Cc1onc(-c2ccccc2)c1-c1ccc(S(N)(=O)=O)cc1 [VLX]
Ki (βAbauCA (CanB)): 215 nM

NS(=O)(=O)c1cc(Cl)cc(Cl)c1O [compound 10, 10]
Ki (βAbauCA (CanB)): 4160 nM

Nc1ccc(S(=O)(=O)NCc2ccc(S(N)(=O)=O)cc2)cc1 [compound 23, 23]
Ki (βAbauCA (CanB)): 317 nM

NS(=O)(=O)c1ccc(CO)cc1 [compound 16, 16]
Ki (βAbauCA (CanB)): 700 nM

Cc1ccc(-c2cc(C(F)(F)F)nn2-c2ccc(S(N)(=O)=O)cc2)cc1 [CLX]
Ki (βAbauCA (CanB)): 270 nM

Nc1nnc(S(N)(=O)=O)s1 [compound 13, 13]
Ki (βAbauCA (CanB)): 444 nM

NS(=O)(=O)c1ccc(O)cc1 [compound 15, 15]
Ki (βAbauCA (CanB)): 625 nM

Nc1cc(Cl)c(S(N)(=O)=O)cc1S(N)(=O)=O [compound 12, 12]
Ki (βAbauCA (CanB)): 1200 nM

Nc1ccc(S(=O)(=O)Nc2ccc(S(N)(=O)=O)cc2)cc1 [compound 22, 22]
Ki (βAbauCA (CanB)): 276 nM

CC(=O)N=c1sc(S(N)(=O)=O)nn1C [MZA]
Ki (βAbauCA (CanB)): 249 nM

CC1(C)O[C@@H]2[C@@H](CO[C@@]3(COS(N)(=O)=O)OC(C)(C)O[C@@H]23)O1 [TPM, topiramate]
Ki (βAbauCA (CanB)): 2770 nM

Nc1nccc(Nc2ccc(S(N)(=O)=O)cc2)n1 [compound 19, 19]
Ki (βAbauCA (CanB)): 407 nM

CC(=O)Nc1nnc(S(N)(=O)=O)s1 [AAZ, 5-acetamido-1,3,4-thiadia-zole-2-sulphonamide]
Ki (βAbauCA (CanB)): 191 nM

NS(=O)(=O)Cc1noc2ccccc12 [ZNS]
Ki (βAbauCA (CanB)): 2340 nM

Nc1ccc(S(=O)(=O)Nc2nnc(S(N)(=O)=O)s2)cc1 [compound 20, 20]
Ki (βAbauCA (CanB)): 344 nM

NS(=O)(=O)c1cc2c(cc1Cl)NCNS2(=O)=O [HCT]
Ki (βAbauCA (CanB)): 875 nM

NS(=O)(=O)c1ccc(N2CCCCS2(=O)=O)cc1 [SLT]
Ki (βAbauCA (CanB)): 542 nM

O=C1NS(=O)(=O)c2ccccc21 [SAC]
Ki (βAbauCA (CanB)): 7490 nM

NS(=O)(=O)c1cc(Cl)c(Cl)c(S(N)(=O)=O)c1 [DCP]
Ki (βAbauCA (CanB)): 472 nM

NS(=O)(=O)c1ccc(C(=O)O)cc1 [compound 18, 18]
Ki (βAbauCA (CanB)): 547 nM

CCN[C@H]1CN(CCCOC)S(=O)(=O)c2sc(S(N)(=O)=O)cc21 [BRZ, Brinzolamide]
Ki (βAbauCA (CanB)): 170 nM

NS(=O)(=O)c1nnc(NS(=O)(=O)c2ccccc2)s1 [BZA, Benzolamide]
Ki (βAbauCA (CanB)): 113 nM

CCN[C@H]1C[C@H](C)S(=O)(=O)c2sc(S(N)(=O)=O)cc21 [DZA]
Ki (βAbauCA (CanB)): 232 nM

NS(=O)(=O)c1cccc(S(N)(=O)=O)c1 [compound 3, 3]
Ki (hCA I; CO2 substrate, […] HEPES pH […] °C, […] min preincubation): 79 nM

Cn1nc(S(N)(=O)=O)sc1=N [compound 14, 14]
Ki (βAbauCA (CanB)): 604 nM

Nc1cc(C(F)(F)F)c(S(N)(=O)=O)cc1S(N)(=O)=O [compound 11, 11]
Ki (βAbauCA (CanB)): 928 nM

Cc1ccc(S(N)(=O)=O)cc1 [compound 4, 4]
Ki (hCA I): 78500 nM | Ki (βAbauCA (CanB)): 1480 nM
